These results are taken from patent publication US6541238B1, “Recombinant cellulose synthase” (Board of Regents, The University of Texas Systems, priority 1990, dated 2003).

Data set [1] concerns the target T1, 83 kd polypeptide of cellulose synthase (Komagataeibacter xylinus, UniProt P0CW87).
T1 construct: endogenous in cells; host or cells: Acetobacter xylinum ATCC 53582; membranes solubilized with detergent, enzyme purified by cellulose entrapment
T1 sequence (P0CW87 1-723): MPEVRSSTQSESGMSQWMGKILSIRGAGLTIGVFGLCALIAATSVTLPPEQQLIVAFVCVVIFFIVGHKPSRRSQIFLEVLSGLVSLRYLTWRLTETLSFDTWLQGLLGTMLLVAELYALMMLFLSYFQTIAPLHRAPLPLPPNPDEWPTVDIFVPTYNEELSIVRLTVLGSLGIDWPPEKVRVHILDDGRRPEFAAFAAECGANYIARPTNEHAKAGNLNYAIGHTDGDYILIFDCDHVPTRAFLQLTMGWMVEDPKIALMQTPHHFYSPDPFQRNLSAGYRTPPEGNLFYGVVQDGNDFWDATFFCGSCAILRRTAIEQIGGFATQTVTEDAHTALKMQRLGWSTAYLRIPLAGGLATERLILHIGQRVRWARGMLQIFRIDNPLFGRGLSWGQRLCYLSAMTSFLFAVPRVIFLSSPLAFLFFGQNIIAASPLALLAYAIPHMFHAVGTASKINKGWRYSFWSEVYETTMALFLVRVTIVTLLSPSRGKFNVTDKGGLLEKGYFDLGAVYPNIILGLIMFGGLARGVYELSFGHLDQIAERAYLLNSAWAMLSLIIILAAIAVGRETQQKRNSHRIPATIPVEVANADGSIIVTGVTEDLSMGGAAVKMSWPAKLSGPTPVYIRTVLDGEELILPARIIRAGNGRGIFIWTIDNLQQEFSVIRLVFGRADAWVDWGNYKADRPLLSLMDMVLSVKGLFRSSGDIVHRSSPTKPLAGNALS
T1 sequence (P0CW87 742-1550 partner limits assumed): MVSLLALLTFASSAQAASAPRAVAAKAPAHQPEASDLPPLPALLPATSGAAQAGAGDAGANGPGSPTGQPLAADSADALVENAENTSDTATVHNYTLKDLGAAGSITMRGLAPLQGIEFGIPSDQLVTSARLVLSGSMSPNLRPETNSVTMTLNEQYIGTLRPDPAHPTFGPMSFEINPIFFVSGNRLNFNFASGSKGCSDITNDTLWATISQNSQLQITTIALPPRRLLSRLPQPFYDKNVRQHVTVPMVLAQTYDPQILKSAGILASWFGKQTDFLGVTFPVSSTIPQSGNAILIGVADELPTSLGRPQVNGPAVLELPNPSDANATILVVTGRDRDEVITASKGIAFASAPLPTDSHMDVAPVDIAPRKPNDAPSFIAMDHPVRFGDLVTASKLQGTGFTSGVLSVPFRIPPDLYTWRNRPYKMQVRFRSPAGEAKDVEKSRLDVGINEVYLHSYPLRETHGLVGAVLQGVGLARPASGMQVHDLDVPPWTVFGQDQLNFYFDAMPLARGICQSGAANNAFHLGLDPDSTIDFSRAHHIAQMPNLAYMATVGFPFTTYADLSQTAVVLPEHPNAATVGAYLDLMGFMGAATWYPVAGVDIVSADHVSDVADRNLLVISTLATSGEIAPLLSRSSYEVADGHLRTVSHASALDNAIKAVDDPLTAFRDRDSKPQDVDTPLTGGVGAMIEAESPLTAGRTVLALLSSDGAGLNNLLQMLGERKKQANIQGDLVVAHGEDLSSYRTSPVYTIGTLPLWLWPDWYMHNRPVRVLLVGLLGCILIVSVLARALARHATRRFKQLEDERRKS
In words: Photoaffinity labeling of purified cellulose synthase with [β-32P]5N3UDP-glc. The class given is binding, Acetobacter xylinum. As for the experimental part:
In addition to 20 μl of activator for cellulose synthase, each reaction mixture contained 50 mM Tris-HCl, 10 mM MgCl2, 1 mM CaCl2, 1 mM EDTA, the indicated protein quantity of enzyme sample, and 20 μM of [β-^32P]5N3UDP-glc (specific activity, 24 mCi/μmol) in a final reaction volume of 50 μl at pH 8.0-8.5. For competition experiments, the competitor, namely UDP-glc, was added at final concentrations of 0, 50, 100, and 300 μM, respectively. For saturation studies, [B-^32P]5N3UDP-glc was added at final concentrations of 20, 50, 100, 300 and 500 μM, respectively. […] Reactions were terminated by the addition of 0.3 ml of 7% perchloric acid. […] The Coomassie blue stained gel was dried and autoradiographed. Autoradiography was performed at −80° C. with Kodak X-Omat AR film and a Dupont Cronex intensifying screen. The molecular mass standards (Bio-Rad) were phosphorylase b (97kd), bovine serum albumin (66 kd), ovalbumin (45 kd), and carbonic anhydrase (31 kd).
The quantitation of the autoradiographs was measured by grey value discrimination of a digitized image (recorded on a Kontron/Zeiss IBAS Image Processing System).

Data set [2] relates to DNA from A. xylinum ATCC 53582 and ATCC 23769. Briefly: DNA-DNA hybridization of 17-mer oligonucleotide probes with HindIII-digested total DNA. The class given is binding, Acetobacter xylinum. Conditions: stringent hybridization conditions; HindIII digest. The procedure:
Hybridization of the oligonucleotide probes with A. xylinum DNA was carried out using the eight oligonucleotides that were thus synthesized. […] In order to accomplish these studies, total DNA from A. xylinum ATCC 53582, A. xylinum ATCC 23769, and E. coil HB101 (a common strain of E. coli used in recombinant DNA experiments) was digested with HindIII and the fragments were separated on an agarose gel. After separation, the fragments were transferred by capillary action to a nylon membrane (GeneScreen; NEN Research Products) according to the procedure of Reed and Mann (1985). The DNA thus transferred was next hybridized with the ^32P-labeled oligonucleotide of the invention using standard procedures. Hybridization was accomplished in a solution with 5×SSC [1×SSC: 0.15M NaCl, 0.015M sodium citrate] at 45° C. for 16-24 hours. The filters were then washed with a solution containing reduced salt concentration. In all cases, the hybridization temperature was 5-7° C. below the dissociation temperature as described by Suggs, et al. (1981) applying the formula Td=2(A+T)+4(G+C).

The target in data set [3] is cellulose synthase of Acetobacter xylinum, Triton X-100-solubilized enzyme preparation (TS) (Acetobacter xylinum ATCC 53582). In words: Con A-Sepharose 4B column chromatography of TS; bound enzyme eluted with 0.3 M methyl alpha-D-mannopyranoside.
The target of another data set is T2, cellulose synthase (Komagataeibacter xylinus, UniProt P0CW87).
T2 construct: endogenous in cells; host or cells: Acetobacter xylinum; washed or trypsinized membranes, Triton X-100, n-octyl glucoside or digitonin extracts, entrapment pellets EP1 and EP2
T2 sequence (P0CW87 1-723): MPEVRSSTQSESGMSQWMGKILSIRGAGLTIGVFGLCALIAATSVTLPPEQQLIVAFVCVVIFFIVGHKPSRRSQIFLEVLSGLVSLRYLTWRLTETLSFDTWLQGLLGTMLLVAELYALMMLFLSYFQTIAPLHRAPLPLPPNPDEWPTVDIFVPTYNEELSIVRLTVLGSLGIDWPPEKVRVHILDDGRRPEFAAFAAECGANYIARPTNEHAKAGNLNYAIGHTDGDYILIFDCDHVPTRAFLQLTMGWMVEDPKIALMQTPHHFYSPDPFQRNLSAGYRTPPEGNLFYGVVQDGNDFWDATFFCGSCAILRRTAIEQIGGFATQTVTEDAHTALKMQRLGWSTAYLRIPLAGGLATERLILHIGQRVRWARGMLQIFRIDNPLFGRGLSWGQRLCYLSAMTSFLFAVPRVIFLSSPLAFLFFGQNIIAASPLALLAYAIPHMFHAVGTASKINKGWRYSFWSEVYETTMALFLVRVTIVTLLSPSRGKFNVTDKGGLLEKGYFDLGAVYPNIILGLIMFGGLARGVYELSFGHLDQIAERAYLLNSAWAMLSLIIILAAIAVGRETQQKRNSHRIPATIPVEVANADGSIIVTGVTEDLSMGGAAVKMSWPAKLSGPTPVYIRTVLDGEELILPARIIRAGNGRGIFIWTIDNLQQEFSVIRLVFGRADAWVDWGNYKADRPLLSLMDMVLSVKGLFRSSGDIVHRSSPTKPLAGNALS
T2 sequence (P0CW87 742-1550 partner limits assumed): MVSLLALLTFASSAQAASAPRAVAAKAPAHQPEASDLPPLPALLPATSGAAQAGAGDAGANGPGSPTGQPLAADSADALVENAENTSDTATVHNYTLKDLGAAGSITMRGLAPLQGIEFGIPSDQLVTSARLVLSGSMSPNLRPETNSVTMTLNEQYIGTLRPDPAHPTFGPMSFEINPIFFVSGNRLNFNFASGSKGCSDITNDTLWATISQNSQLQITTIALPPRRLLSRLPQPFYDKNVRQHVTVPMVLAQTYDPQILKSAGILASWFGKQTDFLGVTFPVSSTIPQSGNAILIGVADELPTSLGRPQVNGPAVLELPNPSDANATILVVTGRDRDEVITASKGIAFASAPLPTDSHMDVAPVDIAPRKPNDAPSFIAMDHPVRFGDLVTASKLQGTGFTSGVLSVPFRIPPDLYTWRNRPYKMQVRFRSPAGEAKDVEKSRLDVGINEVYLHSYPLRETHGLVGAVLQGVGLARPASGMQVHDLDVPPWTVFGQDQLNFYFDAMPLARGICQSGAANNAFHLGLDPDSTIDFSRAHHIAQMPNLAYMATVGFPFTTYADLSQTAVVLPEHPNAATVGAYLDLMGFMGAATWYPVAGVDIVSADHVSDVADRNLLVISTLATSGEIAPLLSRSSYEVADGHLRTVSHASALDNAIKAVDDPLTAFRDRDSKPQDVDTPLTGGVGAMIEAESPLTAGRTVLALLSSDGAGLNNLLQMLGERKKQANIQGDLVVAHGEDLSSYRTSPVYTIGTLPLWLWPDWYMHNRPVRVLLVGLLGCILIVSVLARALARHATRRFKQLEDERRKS
In words: Cellulose synthase enzyme assay (UDP-[14C]glc into alkali-insoluble material). The class given is biochemical, Acetobacter xylinum. As for the experimental part:
Enzyme Assay—Assays contained a final volume of […]: 20 μl of 0.5 M Tris-HCl (pH 9.6) containing 50 mM MgCl2 and 5 mM EDTA, 20 μl of 0.1 M MgCl2, 20 μl of 10 MM CaCl2, 25 μl of TME buffer, 25 μl of H2O, 20 μl of crude Gx, and 50 μl of enzyme sample. […] The reaction was stopped with 2 ml of 0.5 M NaOH, and the radioactivity in alkali-insoluble materials was counted after filtration through glass-fiber filters, as described in detail (Bureau and Brown 1987).
Protein Determination—Protein concentrations were determined according to the method of Bradford (1976), using the protein assay kit of Bio-Rad Laboratories. A modification of the Lowry procedure (Markwell 1978) was used only with membrane preparations. In both cases, bovine serum albumin was used as a standard.

As for `Nc1nc2c(ncn2[C@@H]2O[C@@H]3COP(=O)(O)O[C@H]4[C@@H](O)[C@H](n5cnc6c(=O)[nH]c(N)nc65)O[C@@H]4COP(=O)(O)O[C@H]3[C@H]2O)c(=O)[nH]1` [c-di-GMP, bis-(3′,5′)-cyclic diguanylic acid], the “increase of photoincorporation into the 83 kd band in the presence of activator” value in data set [1] (purified preparation, FIG. 8 lane 6 vs lane 5) was determined as 45%.
Consider 5′-ATGTCICAGTGGATGGG-3′ [83-1G], for which the “hybridization (homology) with A. xylinum DNA” value in data set [2] is listed as “showed homology with a single HindIII fragment”.
As to `[N-]=[N+]=Nc1cn([C@@H]2O[C@H](COP(=O)(O)OP(=O)(O)O[C@H]3O[C@H](CO)[C@@H](O)[C@H](O)[C@H]3O)[C@@H](O)[C@H]2O)c(=O)[nH]c1=O` [[β-^32P]5N3UDP-glc], the “probe concentration at which saturation of photoinsertion was being obtained” value in data set [1] (83 kd protein band) is on record as “above 100 μM”. In addition, in data set [1] (probe 20-500 μM, 83 kd polypeptide, read-out: kd value, saturation of cellulose synthase photolabeling), the Kd was found to be 68 µM.
“Concanavalin A (Con A) Sepharose 4B (from UniProt P02866 30-281)” had a total enzyme activity recovered on elution from the Con A-Sepharose column in data set [3] of over 90%.

B1: trypsin: trypsin (EC 3.4.21.4), Sigma (protein, UniProt P00760 24-246, looked up)
Serine protease 1: IVGGYTCGANTVPYQVSLNSGYHFCGGSLINSQWVVSAAHCYKSGIQVRLGEDNINVVEGNEQFISASKSIVHPSYNSNTLNNDIMLIKLKSAASLNSRVASISLPTSCASAGTQCLISGWGNTKSSGTSYPDVLKCLKAPILSDSSCKSAYPGQITSNMFCAGYLEGGKDSCQGDSGGPVVCSGKLQGIVSWGSGCAQKNKPGVYTKVCNYVSWIKQTIASN
Turning to B1, the “effect of trypsin on enzyme activity of washed membranes or TS” value with cellulose synthase (30 minutes at 25° C.) was “did not effect enzyme activity”. The “effect of trypsin on enzyme activity of the EP1 fraction from DS” value in the data set with cellulose synthase (1 hour at 25° C.) is on record as “enzyme activity was still maintained”.
